From US20220145264A1, “CULTURE MEDIUM FOR MAMMALIAN EXPANDED POTENTIAL STEM CELLS, COMPOSITION, AND METHODS THEREOF” (THE UNIVERSITY OF HONG KONG, priority 2019, published 2022)

Columns and labels:
[1] = test system: Dox-dependent porcine iPSCs; experiment: Dox removal from Dox-dependent porcine iPSCs; type: cell-based; conditions: upon Dox removal
Procedure: Germany Landrace and China TAIHU OCT4-TD-tomato [2] Porcine fetal fibroblasts (PFFs) were plated on gelatinized 15-cm tissue culture plates and cultured in M20 media. They were trypsinized with 0.25% trypsin/EDTA solution (Gibco, Cat. No. 25500-054) and harvested for electroporation at 80% confluence. M20: knockout DMEM (Gibco, Cat. No. 10829-018), 20% FBS (Gibco, Cat. No. 10270), 1× Glutamine Penicillin-Streptomycin (Thermo Fisher Scientific, Cat. No. 11140-050) and 1×NEAA (Thermo Fisher Scientific, Cat. No. 10378-016). The transfections were performed using an Amaxa Nucleofector machine (Lonza) according to the manufacturer's protocol (NHDF Nucleofector® Kit, Cat. No. VPD-1001, program U-20). piggyBac transposition was used to achieve stable integration of reprogramming factors. The expression of the reprogramming factors was under the transcriptional control of the tetO2 tetracycline/doxycycline inducible promoter. 1.5 million PFFs and 6.0 μg DNA (2.0 μg PB-TRE-pOSCK, Porcine OCT4, SOX2, cMYC and KLF4; 1.0 μg PB-TRE-pNhL, 1.0 μg PB-TRE-hRL: human RARG and TRH1, 1.0 μg PB-EF1a-transposase and 1.0 μg PB-EF1a-rTTA) were used in each electroporation reaction. PB-TRE-pOSCK: cDNAs of porcine OCT4, SOX2, cMYC and KLF4 linked by 2A sequence were expressed as a single transcript from the tetO2 promoter. […]

canonical Wnt signalling [2] = experiment: TOPflash luciferase assay in porcine EPSCs; type: cell-based
Procedure: (§1) For the TOPflash assay, 2.0×10^6 cells were transfected with 10 μg TOPflash plasmid. 5 μg pRL-TK (Renilla) vectors were also transfected for normalization. Cells were split 1:9 into a 24-well plate in pEPSCM and hEPSCM with or without XAV939 (WNTi, 2.5 μM, Cat. No. X3004) for 48 h. Cell lysates were collected for luciferase assays. For determining the regulation pattern of Oct4 expression in porcine EPSCs, 10 μg reporter constructs were electroporated into 1.5×10^6 pEPSCs with 5 μg pRL-TK. Assays were performed 48 h later. All luciferase assays were performed using the Dual-Glo Luciferase Assay System (Promega, Cat. No. E2920).

pEPSCs^Emb = experiment: Requirement of individual culture components for pEPSCs (RT-qPCR, AP+ colony formation); type: cell-based, porcine; conditions: withdrawal from medium, porcine EPSCs
Procedure: (§2) Porcine and human EPSC cultures were routinely maintained on STO feeders. STO feeder plates were prepared 3-4 days before passaging by thawing and plating the mitomycin C inactivated STO cells on 0.1% gelatinised plates at the density of ˜1.1×10^4 cells/cm^2. Porcine/human EPSC cells were maintained on STO feeder layers and enzymatically passaged every 3-5 days by a brief PBS wash followed by treatment for 3-5 minutes with 0.25% trypsin/EDTA (Gibco, Cat. No. 25500-054). The cells were dissociated and centrifuged (300 g×5 minutes) in M10 medium. M10: knockout DMEM (Gibco, Cat. No. 10829-018), 10% FBS (Gibco, Cat. No. 10270), 1× Glutamine Penicillin-Streptomycin (Thermo Fisher Scientific, Cat. No. 11140050) and 1×NEAA (Thermo Fisher Scientific, Cat. No. 10378-016). After removing supernatant, the porcine/human EPSCs were re-suspended and seeded in pEPSCM/hEPSCM supplemented with 5 μM ROCK inhibitor Y-27632 (Tocris, Cat. No. 1254). 5% FBS (Gibco, Cat. No. 10270) and 10% KnockOut Serum Replacement (KSR) (Gibco, Cat. No. 10828028) were added in pEPSCM and hEPSCM respectively to improve cells survive. 12-24 hours later, medium was switched to pEPSCM/hEPSCM only. Both pEPSCM and hEPSCM are N2B27 based media. N2B27 basal media (500 ml) was prepared by inclusion of the following components: 482.5 ml DMEM/F-12 (Gibco, Cat. No. 21331-020), 2.5 ml N2 supplement (Thermo Fisher Scientific, Cat. No. 17502048), 5 ml B27 supplement (Thermo Fisher Scientific, Cat. No. 17504044), 5 ml 1× Glutamine Penicillin-Streptomycin (Thermo Fisher Scientific, Cat. No. 11140-050), and 5 ml 1×NEAA (Thermo Fisher Scientific, Cat. No. 10378-016), 0.1 mM 2-mercaptoethanol (Sigma, Cat. No. M6250). pEPSCM (500 ml) was generated by adding the following small molecules and cytokines into 500 ml N2B27 basal media: 0.2 μM CHIR99021(GSK3i, TOCRIS, Cat. No. 4423), 1 μM WH-4-023 (SRC inhibitor, TOCRIS, Cat. No. 5413), 2.5 μM XAV939 (Sigma, Cat. No. X3004) or 2.5 μM IWR-1 (TOCRIS, Cat. No. 3532), […] Vitamin C (Sigma, Cat. No. 49752-100G), 10 ng/ml LIF (Stem Cell Institute, University of Cambridge. SCI) and 20 ng/ml ACTIVIN (SCI). hEPSCM (500 ml) was generated by adding the following components into 500 ml N2B27 basal media: 1.0 μM CHIR99021(GSK3 inhibitor, TOCRIS, Cat. No. 4423), 0.5 μM A-419259 (SRC inhibitor, TOCRIS, Cat. No. 3914), 2.5 μM XAV939 (Sigma, Cat. No. X3004), […] Vitamin C (Sigma, Cat. No. 49752-100G), 10 ng/ml LIF (SCI). Although both targeting SRC family kinases (SFKs), WH-4-023 and A419259 were preferred for porcine and human EPSCs, respectively. […] The concentrations of CHIR99021 for porcine and human EPSC cultures are 0.2 μM and 1.0 μM, respectively. […] 0.25 μM SB 590885 (BRAF inhibitor, R&D, Cat. No. 2650) and 2.0 μM SP600125 ([…], TOCRIS, Cat. No. 1496) were included to improve porcine and human EPSC cultures, but they were not essential for the routine maintenance of porcine and human EPSCs. All cell cultures in this paper were performed under conditions of 37° C. and 5% CO2 unless stated otherwise.
(§3) Total RNA was isolated using an RNeasy Mini Kit (Qiagen, Cat. No. 74106) for cultured cells or RNeasy Micro Kit (Qiagen, Cat. No. 74034) for sorted NANOS3-mCherry^+ cells. RNA was subsequently quantified and treated with gDNA WipeOut to remove genomic DNA. Complementary DNA (cDNA) was prepared using a QuantiTect Reverse Transcription Kit (Qiagen, Cat. No. 205311). RT-qPCR primers or TaqMan Gene Expression Assays (Life Technologies) are listed in Supplementary Table 10 and 11. ABsolute Blue qPCR ROX Mix (ABgene, Cat. No. AB4138B) were used for probe based qPCR assays and SYBR Green ROX qPCR Mastermix (Qiagen, Cat. No. 330523) were used for primer based qPCR assays. All qPCR reactions were performed on ABI 7900 HT Sequence Detection System (Life Technologies). Information on all primers and probes used for qPCR analysis are provided in Supplementary Table 10 and 11. Gene expression was determined relative to GAPDH using the […]. […]

H1-EPSCs = experiment: Requirement of individual culture components for hEPSCs (RT-qPCR, AP+ colony formation); type: cell-based, human; conditions: withdrawal from medium, human EPSCs
Procedure: as §2, §3

AXIN1 [3] = experiment: Western blot analysis of AXIN1 in porcine EPSCs; type: cell-based
Procedure: (§4) Whole-cell extracts were prepared from cells with indicated treatments in lysis buffer composed of 50 mM Tris-HCl (pH 7.5), 0.15M NaCl, 0.1% SDS, 1% Triton X-100, 1% sodium deoxycholate and complete mini EDTA free protease inhibitor cocktail (Roche Applied Science, Cat. No. 11836170001). The cells for the experiment were collected from the same batch of culture when the culture had reached 70-80% confluence. The biological replicates were included to allow the meaningful conclusions. 10 μg protein were used for electrophoresis and transferred to nitrocellulose membranes. Membranes were blocked with 5% milk and treated with antibodies. Primary antibodies of mouse or rabbit anti AXIN1, SMAD2/3, p-SMAD2/3 and ALPHA-TUBULIN were used. Horseradish peroxidase-conjugated secondary antibodies against rabbit or mouse IgG were added. After antibody treatment, blots were developed using ECL Western Blotting Detection System (Thermo Fisher Scientific, Cat. No. 32106). The antibodies used in these experiments is provided in Supplementary Table 9.

canonical Wnt signalling [4] = experiment: TOPflash luciferase assay in human EPSCs; type: cell-based
Procedure: as §1

AXIN1 [5] = experiment: Western blot analysis of AXIN1 in human EPSCs; type: cell-based
Procedure: as §4

SMILES	time to differentiation of iPSCs [1] [days]	canonical WNT activities (canonical Wnt signalling [2]; porcine EPSCs)	TOPflash activity (canonical Wnt signalling [2]; removing XAV939 from pEPSCM for 5 days)	state of EPSCs on withdrawal of the compound (pEPSCs^Emb)	state of EPSCs on withdrawal of the compound (H1-EPSCs)	AXIN1 protein content (AXIN1 [3])	canonical WNT activities (canonical Wnt signalling [4]; human EPSCs)	TOPflash activity (canonical Wnt signalling [4]; removing XAV939 from hEPSCM for 5 days)	AXIN1 protein content (AXIN1 [5])
C[C@H]1c2cccc(O)c2C(=O)C2=C(O)[C@]3(O)C(=O)C(C(N)=O)=C(O)[C@@H](N(C)C)[C@@H]3[C@@H](O)[C@@H]21 [Dox, Doxycycline]	4 to 5	–	–	–	–	–	–	–	–
Oc1nc(-c2ccc(C(F)(F)F)cc2)nc2c1CSCC2 [XAV939]	–	reduced	substantially increased	collapse and differentiation	collapse and differentiation	enhanced	reduced	substantially increased	enhanced
